How the values were obtained:
[1] = target: T1, Ectonucleotide pyrophosphatase/phosphodiesterase family member 1 (Homo sapiens, UniProt P22413); assay: Inhibition of human GFP-fused NPP1 expressed in COS7 cells using pnp-TMP as substrate after 60 mins; assay type: cell-based
T1 sequence (P22413 whole entry): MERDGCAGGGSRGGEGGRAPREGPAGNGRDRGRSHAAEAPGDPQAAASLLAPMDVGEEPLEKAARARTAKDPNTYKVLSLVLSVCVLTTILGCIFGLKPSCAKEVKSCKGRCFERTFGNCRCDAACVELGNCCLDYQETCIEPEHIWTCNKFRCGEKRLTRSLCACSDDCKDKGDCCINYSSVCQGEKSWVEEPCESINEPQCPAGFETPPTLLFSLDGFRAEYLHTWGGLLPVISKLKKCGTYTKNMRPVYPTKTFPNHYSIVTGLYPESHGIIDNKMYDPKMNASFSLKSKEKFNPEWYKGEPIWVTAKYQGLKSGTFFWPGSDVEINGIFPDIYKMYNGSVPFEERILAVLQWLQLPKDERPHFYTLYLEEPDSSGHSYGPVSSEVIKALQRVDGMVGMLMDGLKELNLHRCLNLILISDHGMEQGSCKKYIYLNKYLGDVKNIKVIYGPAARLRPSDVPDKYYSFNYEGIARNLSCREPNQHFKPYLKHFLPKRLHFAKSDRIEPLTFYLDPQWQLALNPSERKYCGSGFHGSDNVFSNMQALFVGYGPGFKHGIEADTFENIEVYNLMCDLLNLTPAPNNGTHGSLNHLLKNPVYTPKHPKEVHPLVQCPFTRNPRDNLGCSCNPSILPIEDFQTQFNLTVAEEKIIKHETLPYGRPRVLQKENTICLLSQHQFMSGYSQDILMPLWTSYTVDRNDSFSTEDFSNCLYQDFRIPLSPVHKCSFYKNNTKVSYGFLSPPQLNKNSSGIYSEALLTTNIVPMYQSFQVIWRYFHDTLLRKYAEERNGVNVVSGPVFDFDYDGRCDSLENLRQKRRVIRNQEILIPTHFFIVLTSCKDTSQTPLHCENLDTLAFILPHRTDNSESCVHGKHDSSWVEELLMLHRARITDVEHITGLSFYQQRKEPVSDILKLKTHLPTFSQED

[2] = target: T2, Ectonucleotide pyrophosphatase/phosphodiesterase family member 1 (Homo sapiens) (UniProt P22413); assay: Inhibition of human GFP-fused NPP1 expressed in COS7 cells at 1 uM using pnp-TMP as substrate after 60 mins relative to control; assay type: cell-based
T2 sequence (whole entry): T1 sequence (P22413 whole entry)

| Structure (SMILES) | Ki [1] | inhibition [2] |
| --- | --- | --- |
| COc1cc2nc(/C=C/c3cccc(F)c3)nc(N3CCC(CCNS(N)(=O)=O)CC3)c2cc1OC | 3.58 µM | 14% |
| CCCOc1cc2c(Cl)ncnc2cc1OC | 3.24 µM | 29% |
| COc1cc2nc(/C=C/c3ccccc3F)nc(N3CCC(CCNS(N)(=O)=O)CC3)c2cc1OC | 0.211 µM | 78% |
| COc1cc2nc(/C=C/c3ccncc3)nc(N3CCC(CCNS(N)(=O)=O)CC3)c2cc1OC | 0.218 µM | 79% |
| COC(=O)c1ccc(/C=C/c2nc(N3CCC(CCNS(N)(=O)=O)CC3)c3cc(OC)c(OC)cc3n2)cc1 | 1.34 µM | 43% |
| COc1cc2ncnc(Cl)c2cc1OC/C=C/S(F)(F)(F)(F)F | 7.97 µM | 15% |
| COc1cc2ncnc(N3CCC(CCNS(N)(=O)=O)CC3)c2cc1OC | – | 87% |
| COc1cc2ncnc(N3CCC(CC#N)CC3)c2cc1OC | – | < 1% |
| COC(=O)c1cccc(/C=C/c2nc(N3CCC(CCNS(N)(=O)=O)CC3)c3cc(OC)c(OC)cc3n2)c1 | 0.297 µM | 74% |
| COc1cc2ncnc(N3CCC(CCNC(C)=O)CC3)c2cc1OC | – | 9% |
| CCOC(=O)C1CCN(c2ncnc3cc(OC)c(OC)cc23)CC1 | – | 12% |
| COc1cc2ncnc(N3CCC(CO)CC3)c2cc1OC | – | 11% |
| COc1ccc(/C=C/c2nc(N3CCC(CCNS(N)(=O)=O)CC3)c3cc(OC)c(OC)cc3n2)cc1 | 0.231 µM | 66% |
| COc1cc2nc(CCc3ccc(F)cc3)nc(N3CCC(CCNS(N)(=O)=O)CC3)c2cc1OC | 0.366 µM | 69% |
| COc1cccc(/C=C/c2nc(N3CCC(CCNS(N)(=O)=O)CC3)c3cc(OC)c(OC)cc3n2)c1 | 0.101 µM | 88% |
| COc1cc2ncnc(N3CCC(CCNS(C)(=O)=O)CC3)c2cc1OC | – | 12% |
| COc1ccccc1/C=C/c1nc(N2CCC(CCNS(N)(=O)=O)CC2)c2cc(OC)c(OC)cc2n1 | 0.302 µM | 74% |
| COc1cc2nc(/C=C/c3ccccn3)nc(N3CCC(CCNS(N)(=O)=O)CC3)c2cc1OC | 0.071 µM | 85% |
| CCCCOc1cc2c(Cl)ncnc2cc1OC | – | < 1% |
| COc1cc2nc(/C=C/c3ccccc3)nc(N3CCC(CCNS(N)(=O)=O)CC3)c2cc1OC | 1.84 µM | 33% |
| COc1cc2nc(CC3OC(=O)c4ccccc43)nc(N3CCC(CCNS(N)(=O)=O)CC3)c2cc1OC (stereo not given) | 0.09 µM | 79% |
| COc1ccc2ncnc(N3CCC(CCNS(N)(=O)=O)CC3)c2c1 | 0.242 µM | 71% |
| COc1cc2nc(/C=C/c3ccc(F)cc3)nc(N3CCC(CCNS(N)(=O)=O)CC3)c2cc1OC | 0.465 µM | 70% |
| COc1cc2nc(/C=C/c3cccnc3)nc(N3CCC(CCNS(N)(=O)=O)CC3)c2cc1OC | 0.058 µM | 86% |
| COc1cc2ncnc(N3CCC(CCN)CC3)c2cc1OC | 0.699 µM | 45% |
| CCOc1cc2c(Cl)ncnc2cc1OC | 1.31 µM | 48% |

— ChEMBL document CHEMBL4145537, “Synthesis and biological evaluation of novel quinazoline-4-piperidinesulfamide derivatives as inhibitors of NPP1” (Eur J Med Chem, 2018)
